Laboratory results published in patent US12653190B2, “Heteroaryl-triazole compounds as pesticides” (Bayer Aktiengesellschaft, priority 2020, dated 2026).

Columns and labels:
Assay type in all cases: in vivo
[1] = system: fall armyworm larvae (Spodoptera frugiperda); assay: Spodoptera frugiperda spray test; conditions: in Zea mays, 168 h
Protocol: Spodoptera frugiperda—Spray Test
• Solvent: 78.0 parts by weight acetone • 1.5 parts by weight dimethylformamide • Emulsifier: alkylarylpolyglycol ether
(§1) To produce a suitable preparation of active compound, 1 part by weight of active compound is mixed with the stated amount of solvents and is diluted with water, containing an emulsifier concentration of 1000 ppm, to the desired concentration. Further test concentrations are prepared by dilution with emulsifier containing water.
Maize (Zea mays) leaf sections are sprayed with a preparation of the active ingredient of the desired concentration. Once dry, the leaf sections are infested with fall armyworm larvae (Spodoptera frugiperda). After 7 days mortality in % is determined. 100% means all caterpillars have been killed and 0% means none of the caterpillars have been killed.

[2] = system: larvae of the banded cucumber beetle (Diabrotica balteata); assay: Diabrotica balteata spray test; conditions: 168 h, 100 g/ha (=32 μg/well), after 7 days, wheat seeds, read-out: efficacy (seedling growth)
Protocol: Diabrotica balteata—Spray Test
(§2) • Solvent: 78.0 parts by weight of acetone • 1.5 parts by weight of dimethylformamide • Emulsifier: alkylarylpolyglycol ether
as §1, with “solvent,” for “solvents”, “and the concentrate” for “and”
Soaked wheat seeds (Triticum aestivum) are placed in a multiple well plate filled with agar and some water and are incubated for 1 day to germinate (5 seeds per well). The germinated wheat seeds are sprayed with a test solution containing the desired concentration of the active ingredient. Afterwards each unit is infected with 10-20 larvae of the banded cucumber beetle (Diabrotica balteata).
After 7 days efficacy in % is determined. 100% means all the seedlings have grown up like in the untreated, uninfected control; 0% means none of the seedlings have grown.

[3] = system: adult engorged female ticks (Rhipicephalus microplus); assay: Rhipicephalus (Boophilus) microplus injection test; conditions: 168 h, egg deposition monitored after 7 days, read-out: efficacy (infertile eggs); for pest or weed control at 4 µg/tick: 4 μg/tick injected; for pest or weed control at 20 µg/tick: 20 μg/tick injected
Protocol: Rhipicephalus (Boophilus) microplus—Iniectiontest
• Solvent: dimethyl sulfoxide
To produce a suitable preparation of active compound, 10 mg of active compound are dissolved in 0.5 mL solvent, and the concentrate is diluted with solvent to the desired concentration.
Five adult engorged female ticks (Rhipicephalus microplus) are injected with 1 μL compound solution into the abdomen. The ticks are transferred into replica plates and incubated in a climate chamber.
After 7 days egg deposition of fertile eggs is monitored. Eggs where fertility is not visible are stored in a climate chamber till hatching after about 42 days. An efficacy of 100% means all eggs are infertile; 0% means all eggs are fertile.

[4] = system: larvae of the southern green stink bug (Nezara viridula); assay: Nezara viridula spray test; conditions: 96 h, after 4 days, barley plants
Protocol: Nezara viridula—Spray Test
as §2
as §1, with “solvent,” for “solvents”, “and the concentrate” for “and”
Barley plants (Hordeum vulgare) are sprayed with a test solution containing the desired concentration of the active ingredient and are infested with larvae of the southern green stink bug (Nezara viridula).
After 4 days mortality in % is determined. 100% means all the stink bugs have been killed; 0% means none of the stink bugs have been killed.

| SMILES | mortality at 100 g/ha [1] | pest or weed control at 32 µg/disc, 100 g/ha [2] | further results |
| --- | --- | --- | --- |
| C[C@H](NC(=O)c1cc(Cl)cc(C(=O)C2CC2)c1)c1ncnn1-c1ncc(C#N)s1 [Example I-83] | 100% | 100% | – |
| C[C@H](NC(=O)c1cc(Br)cc(OC2CC2)c1)c1ncnn1-c1ncc(C#N)s1 [Example I-49] | 100% | 100% | – |
| C[C@H](NC(=O)c1cc(Br)cc(C(F)(F)c2ccc(F)cc2)c1)c1ncnn1-c1cc(C#N)ncn1 [Example I-80] | 100% | 100% | – |
| C[C@H](NC(=O)c1cc(Cl)nc(C(C)(C)C#N)c1)c1nc(C2CC2)nn1-c1ncc(C#N)s1 [Example I-69] | 100% | 100% | – |
| C[C@H](NC(=O)c1cc(CC#N)cc(OC(F)(F)F)c1)c1ncnn1-c1cnc(C#N)cn1 [Example I-57] | 100% | – | – |
| Cc1nc([C@H](C)NC(=O)c2cc(OCc3ccc(Cl)cc3)cc(C(F)(F)F)c2)n(-c2ccc(C#N)cn2)n1 [Example I-20, 3-[(4-Chlorobenzyl)oxy]-N-{(1S)-1-[1-(5-cyanopyridin-2-yl)-3-methyl-1H-1,2,4-triazol-5-yl]ethyl}-5-(trifluoromethyl)benzamide] | – | – | pest or weed control at 4 µg/tick [3]: 100% |
| C[C@H](NC(=O)c1cc(Br)cc(OCC2CC2(Cl)Cl)c1)c1ncnn1-c1ncc(C#N)s1 (stereo partly shown) [Example I-62] | – | 100% | – |
| C[C@H](NC(=O)c1cc(OC(C)(C)C#N)cc(C2CC2)c1)c1ncnn1-c1cc(C#N)ncn1 [Example I-92] | 100% | – | – |
| Cc1nc([C@H](C)NC(=O)c2cc(OC(C)c3ccccc3Cl)cc(C(F)(F)F)c2)n(-c2ccc(C#N)cn2)n1 (stereo partly drawn) [Example I-14, 3-[1-(2-Chlorophenyl)ethoxy]-N-{(1S)-1-[1-(5-cyanopyridin-2-yl)-3-methyl-1H-1,2,4-triazol-5-yl]ethyl}-5-(trifluoromethyl)benzamide] | – | – | pest or weed control at 4 µg/tick [3]: 100%; pest or weed control at 20 µg/tick [3]: 100% |
| C[C@H](NC(=O)c1cc(OC(C)(C)C#N)cc(C2CC2)c1)c1ncnn1-c1ncc(C#N)s1 [Example I-89] | – | 100% | – |
| C[C@H](NC(=O)c1cc(Cl)nc(C(C)(C)C#N)c1)c1ncnn1-c1cc(C#N)ncn1 [Example I-75] | 100% | 100% | mortality at 500 g/ha [4]: 100% |
| Cc1nc([C@H](C)NC(=O)c2cc(Cl)cc(C(=O)C3CC3)c2)n(-c2ncc(C#N)s2)n1 [Example I-82] | 100% | 100% | – |
| CC(=O)Oc1cc(Cl)cc(C(=O)N[C@@H](C)c2ncnn2-c2ccc(C#N)cn2)c1 [Example I-11] | – | – | pest or weed control at 4 µg/tick [3]: 80%; pest or weed control at 20 µg/tick [3]: 80% |
| C[C@H](NC(=O)c1cc(Cl)cc(C(=O)C2CC2)c1)c1ncnn1-c1cc(C#N)ncn1 [Example I-81] | 100% | 100% | – |
| C[C@H](NC(=O)c1cc(Br)cc(OCC2CC2(F)F)c1)c1ncnn1-c1ncc(C#N)s1 (stereo partly shown) [Example I-63] | – | 100% | – |
| Cc1nc([C@H](C)NC(=O)c2cc(OCc3cccc(Cl)c3)cc(C(F)(F)F)c2)n(-c2ccc(C#N)cn2)n1 [Example I-13, 3-[(3-Chlorobenzyl)oxy]-N-{(1S)-1-[1-(5-cyanopyridin-2-yl)-3-methyl-1H-1,2,4-triazol-5-yl]ethyl}-5-(trifluoromethyl)benzamide] | – | 100% | pest or weed control at 4 µg/tick [3]: 80%; pest or weed control at 20 µg/tick [3]: 100% |
| Cc1nc([C@H](C)NC(=O)c2cc(Cl)nc(C(C)(C)C#N)c2)n(-c2ncc(C#N)s2)n1 [Example I-70] | 100% | 100% | mortality at 500 g/ha [4]: 100% |
| C[C@H](NC(=O)c1cc(OC(F)(F)F)cc(C(C)(C)C#N)c1)c1nc(C2CC2)nn1-c1cc(C#N)ncn1 [Example I-76] | 100% | 100% | – |

| SMILES | mortality at 100 g/ha [1] | pest or weed control at 32 µg/disc, 100 g/ha [2] | further results |
| --- | --- | --- | --- |
| C[C@H](NC(=O)c1cc(OC2CC2)cc(OC(F)(F)F)c1)c1ncnn1-c1cc(C#N)ncn1 [Example I-87] | 100% | 80% | – |
| C[C@H](NC(=O)c1cc(OC2CC2)cc(OC(F)(F)F)c1)c1ncnn1-c1ncc(C#N)s1 [Example I-64] | 100% | 100% | mortality at 500 g/ha [4]: 100% |
| C[C@H](NC(=O)c1cc(C(C)(C)C#N)cc(S(C)(=O)=O)c1)c1ncnn1-c1ncc(C#N)s1 [Example I-55] | 100% | – | mortality at 100 g/ha ([4]; 100 g/ha): 90%; mortality at 500 g/ha [4]: 90% |
| C[C@H](NC(=O)c1cc(Br)cc(C(F)(F)c2ccc(F)cc2)c1)c1ncnn1-c1cnc(C#N)cn1 [Example I-77] | 100% | 100% | – |
| C[C@H](NC(=O)c1cc(OC(F)(F)F)cc(C(C)(C)C#N)c1)c1nc(C2CC2)nn1-c1ncc(C#N)s1 [Example I-67] | 100% | 100% | – |
| C[C@H](NC(=O)c1cc(Br)cc(OC(C)(C)C#N)c1)c1ncnn1-c1cnc(C#N)cn1 [Example I-84] | 100% | – | – |
| Cc1nc([C@H](C)NC(=O)c2cc(OC3CC3)cc(OC(F)(F)F)c2)n(-c2ncc(C#N)s2)n1 [Example I-88] | 100% | 100% | – |
| Cc1nc([C@H](C)NC(=O)c2cc(OCc3ccccc3Cl)cc(C(F)(F)F)c2)n(-c2ccc(C#N)cn2)n1 [Example I-16, 3-[(2-Chlorobenzyl)oxy]-N-{(1S)-1-[1-(5-cyanopyridin-2-yl)-3-methyl-1H-1,2,4-triazol-5-yl]ethyl}(trifluoromethyl)benzamide] | – | – | pest or weed control at 4 µg/tick [3]: 100%; pest or weed control at 20 µg/tick [3]: 100% |
| Cc1nc([C@H](C)NC(=O)c2cc(Br)cc(C(F)(F)c3ccc(F)cc3)c2)n(-c2ncc(C#N)s2)n1 [Example I-79] | 100% | 100% | – |
| C[C@H](NC(=O)c1cc(Br)cc(OC(C)(C)C#N)c1)c1ncnn1-c1cc(C#N)ncn1 [Example I-85] | 100% | – | – |
| C[C@H](NC(=O)c1cc(OC2CC2)cc(OC(F)(F)F)c1)c1ncnn1-c1cnc(C#N)cn1 [Example I-86] | 100% | 100% | – |
| Cc1nc([C@H](C)NC(=O)c2cc(OC(C)(C)C#N)cc(C3CC3)c2)n(-c2ncc(C#N)s2)n1 [Example I-90] | – | 100% | – |
| Cc1nc([C@H](C)NC(=O)c2cc(OCc3ccccc3)cc(C(F)(F)F)c2)n(-c2ccc(C#N)cn2)n1 [Example I-18, 3-(Benzyloxy)-N-{(1S)-1-[1-(5-cyanopyridin-2-yl)-3-methyl-1H-1,2,4-triazol-5-yl]ethyl}-5-(trifluoromethyl)benzamide] | – | 100% | pest or weed control at 4 µg/tick [3]: 100% |
| C[C@H](NC(=O)c1cc(Br)cc(C(F)(F)c2ccc(F)cc2)c1)c1ncnn1-c1ncc(C#N)s1 [Example I-78] | 100% | 100% | – |
| C[C@H](NC(=O)c1cc(Cl)cc(CC#N)c1)c1ncnn1-c1ncc(C#N)s1 [Example I-50] | – | 100% | – |
| Cc1nc([C@H](C)NC(=O)c2cc(OC(C)c3cccc(Cl)c3)cc(C(F)(F)F)c2)n(-c2ccc(C#N)cn2)n1 (stereo partly drawn) [Example I-12, 3-[1-(3-Chlorophenyl)ethoxy]-N-{(1S)-1-[1-(5-cyanopyridin-2-yl)-3-methyl-1H-1,2,4-triazol-5-yl]ethyl}-5-(trifluoromethyl)benzamide] | – | – | pest or weed control at 4 µg/tick [3]: 100%; pest or weed control at 20 µg/tick [3]: 100% |
| Cc1nc([C@H](C)NC(=O)c2cc(O)cc(C(F)(F)F)c2)n(-c2ccc(C#N)cn2)n1 [Example I-47, N-{(1S)-1-[1-(5-Cyanopyridin-2-yl)-3-methyl-1H-1,2,4-triazol-5-yl]ethyl}-3-hydroxy-5-(trifluoromethyl)benzamide] | – | – | pest or weed control at 4 µg/tick [3]: 100%; pest or weed control at 20 µg/tick [3]: 100% |
| C[C@H](NC(=O)c1cc(C(C)(C)C#N)cc(S(C)(=O)=O)c1)c1nc(C2CC2)nn1-c1ncc(C#N)s1 [Example I-93] | 100% | 80% | – |
